Literature values as cited in patent publication US4096052A, “Electrochemical hydroxylation of certain aromatic compounds” (priority 1977, dated 1978).
Like-named read-outs stand apart in the source and are kept apart here.

[1] = Table II (comparison acids), H2O, 25° C

CC(Cl)CC(=O)O (stereo not drawn) [β-chlorobutyric]
Ka (H2 O) at 25° C [1]: 8.9 × 10^-5
pKa (H2 O) at 25° C [1]: 4.05

O=C(O)C(Cl)Cl [dichloroacetic]
Ka (H2 O) at 25° C (Table I, H2O, 25° C): 3.32 × 10^-2

O=C(O)Cc1ccccc1 [phenylacetic]
Ka (H2 O) (Table II, H2O, 18° C): 5.2
pKa (H2 O) (Table II, H2O, 18° C): 4.28

CCC(=O)O [propionic]
Ka (H2 O) at 25° C [1]: 1.34 × 10^-5

N#CCC(=O)O [cyanoacetic, cyanoacetic acid]
Ka (H2 O) at 25° C (Table I, H2O, 25° C): 3.65 × 10^-3
pKa (H2 O) at 25° C (water): 2.41

O=C(O)CBr [bromoacetic]
Ka (H2 O) at 25° C (Table I, H2O, 25° C): 2.05 × 10^-3

O=C(O)CCCl [β-chloropropionic]
Ka (H2 O) at 25° C [1]: 1.04 × 10^-4
pKa (H2 O) at 25° C [1]: 3.98

C=CCC(=O)O [vinylacetic]
pKa (H2 O) at 25° C (water): 4.34

O=C(O)c1ccccc1[N+](=O)[O-] [o-nitrobenzoic, o-nitrobenzoic acid]
Ka (H2 O) (Table I, H2O, 18° C): 6.95 × 10^-3
pKa (H2 O) (water): 2.16

CC(Cl)C(=O)O (stereo not drawn) [α-chloropropionic]
Ka (H2 O) at 25° C (Table I, H2O, 25° C): 1.47 × 10^-3
pKa (H2 O) at 25° C (Table I, H2O, 25° C): 2.83

O=C(O)C(Cl)(Cl)Cl [trichloroacetic, trichloroacetic acid]
Ka (H2 O) at 25° C (Table I, H2O, 25° C): 2 × 10^-1
pKa (H2 O) at 25° C (Table I, H2O, 25° C): 0.70

CCC(Cl)C(=O)O (stereo not drawn) [α-chlorobutyric]
Ka (H2 O) at 25° C (Table I, H2O, 25° C): 1.39 × 10^-3
pKa (H2 O) at 25° C (Table I, H2O, 25° C): 2.86

O=C(O)CCl [chloroacetic, chloroacetic acid]
Ka (H2 O) at 25° C (Table I, H2O, 25° C): 1.4 × 10^-3

O=C(O)C(F)(F)F [trifluoroacetic, trifluoroacetic acid]
dissociation in aqueous solution (Table I footnote in place of Ka) (Table I footnote, H2O, 25° C): completely dissociated in aqueous solution
pKa (H2 O) at 25° C (Table I, H2O, 25° C): 0

CCCCC(=O)O [n-valeric]
Ka (H2 O) at 25° C [1]: 1.5 × 10^-5
